Tests used:
Rattus norvegicus [1] = experiment: Inhibition of (+)-amphetamine-induced stereotyped behavior in ip dosed rat administered 15 mins prior to (+)-amphetamine challenge measured after 15 mins; type: functional; conditions: read-out: MED
[2] = Displacement of [3H]haloperidol from rat striatum dopamine receptor
[3] = Displacement of [3H]spiperone from calf striatum dopamine receptor; parameters: species or system Bos taurus
Bos taurus = organism: Bos taurus; experiment: Displacement of [3H]spiperone from calf striatum dopamine receptor at 1000 nM
Rattus norvegicus [4] = organism: Rattus norvegicus; experiment: Displacement of [3H]haloperidol from rat striatum dopamine receptor at 1000 nM

SMILES | minimal effective dose (Rattus norvegicus [1]) | IC50 [2] | IC50 [3] | inhibition (Bos taurus) | inhibition (Rattus norvegicus [4])
CC(C)(C)[C@]1(O)CCN2C[C@H]3Cc4ccccc4Cc4cccc(c43)[C@@H]2C1.Cl (racemic) | 0.62 mg/kg | 1.7 nM | 1.7 nM |  | 
Br.CC(C)(C)[C@]1(O)CCN2C[C@H]3Cc4ccccc4Cc4cccc(c43)[C@@H]2C1 | 0.31 mg/kg | 0.8 nM | 0.8 nM |  | 
Br.CC(C)(C)[C@@]1(O)CCN2C[C@@H]3Cc4ccccc4Cc4cccc(c43)[C@H]2C1 | > 25 mg/kg |  |  | 0% | 0%

Source: ChEMBL document CHEMBL3227957, “(+)-Isobutaclamol: a crystallographic, pharmacological, and biochemical study” (J Med Chem, 1979)
